Data on one compound can be found in patent US20250085201A1, “SUBSTITUTED QUADRUPOLAR FLUORESCENT DYES FOR LIVE CELL IMAGING” (Northwestern University, priority 2023, published 2025).

Data set [1] can be described thus: Absolute fluorescence quantum yield (integrating sphere). In kind it is physicochemical. The following applies: in H2O. The protocol: (§1) Fluorescent dyes were dissolved in the appropriate solvents to afford 1 mM solutions prior to spectroscopic analysis. A portion of 30 μL of a 1 mM solution was diluted by adding a selected solvent to a sample with a total volume of 3000 μL, affording a 1×10^−5 M solution. UV/Vis Absorption spectra were recorded in glass cuvettes on a UV-3600 Shimadzu spectrophotometer. Steady-state emission spectra were acquired in quartz cuvettes with optical path-lengths of 10 mm containing the solution being analyzed using a HORIBA Fluoromax4 spectrofluorometer, which was equipped with an integrating sphere for determining the absolute photoluminescence quantum yield.
Steady-state and time-resolved emission spectra for dyes 1-6, 7·2PF6 and 9·4PF6 were acquired using a HORIBA Fluorolog-3 spectrofluorometer, equipped with a time-correlated single photon counting (TCSPC) module (diode laser excitation at λ=375 nm) and an integrating sphere, which was used for absolute photo-luminescence quantum yield determinations. Picosecond time-resolved fluorescence measurements were recorded using a commercial direct-diode-pumped 100 kHz amplifier (Spirit 1040-HE, Spectra-Physics), producing a fundamental beam of 1040 nm (350 fs, 12 W) which was used to pump a non-collinear optical parametric amplifier (Spirit-NOPA, SpectraPhysics) capable of delivering tunable, high-repetition-rate pulses with pulse widths as short as sub-20 fs. Dyes 1-6, 7·2PF6 and 9·4PF6 were excited with 350 nm, 2 nJ laser pulses. Fluorescence was detected using a Hamamatsu C4780 Streakscope as previously described in the literature. Samples were prepared in 2-mm quartz cuvettes. All data were acquired in the single-photon-counting mode using the Hamamatsu HPD-TA software. The temporal resolution was approximately 2% of the sweep window. Single wavelength kinetic analysis was performed using a nonlinear least-squares fit to a sum of exponentials convoluted with an instrument response function. Visible and near-infrared femtosecond and nanosecond transient absorption (fsTA and nsTA, respectively) spectroscopies were performed following descriptions already recorded in the literature. The 330 nm, ˜100 fs pump pulses were generated at 1 μJ per pulse using a commercial collinear optical parametric amplifier (TOPAS-Prime, Light-Conversion, Ltd.); 414-nm pump pulses were obtained by second-harmonic generation of the 828 nm fundamental. The pump polarization was randomized using a commercial depolarizer (DPU-25-A, Thorlabs, Inc.) to eliminate any orientational dynamics resulting from the experiment. Spectra were collected on commercial spectrometers (customized Ultrafast Systems Helios and EOS spectrometers, for fsTA and nsTA, respectively) for each time window. All samples were stirred to avoid localized heating or degradation effects. The optical density was maintained at 0.6 for all samples.
Steady-state and time-resolved emission spectra for dyes 7·2PF6 and 9·4PF6 were acquired using a HORIBA Fluorolog-3 spectrofluorometer, equipped with a time-correlated single photon counting (TCSPC) module (diode laser excitation at =375 nm) and an integrating sphere, which was used for absolute photo-luminescence quantum yield determinations. Picosecond time-resolved fluorescence measurements were recorded using a commercial direct-diode-pumped 100 kHz amplifier (Spirit 1040-HE, Spectra-Physics), producing a fundamental beam of 1040 nm (350 fs, 12 W) which was used to pump a non-collinear optical parametric amplifier (Spirit-NOPA, SpectraPhysics) capable of delivering tunable, high-repetition-rate pulses with pulse widths as short as sub-20 fs. The samples 7·2PF6 and 9·4PF6 were excited with […], 2 nJ laser pulses. Fluorescence was detected using a Hamamatsu C4780 Streakscope as previously described in the literature.^71 Samples were prepared in 2-mm quartz cuvettes. All data were acquired in the single-photon-counting mode using the Hamamatsu HPD-TA software. […]

The test system of data set [2] is MCF-7 breast cancer cells. As to the kind of experiment: Cell uptake and live cell laser scanning confocal imaging. The format is cell-based. The settings on record: for uptake and intracellular distribution (confocal images): 24 h, λex=405 nm. The protocol:
Because of its low cytotoxicity and emission (FIG. 3) in the green region (548 nm) at micromolar concentrations (ΦF=0.15), water-soluble 9·4Cl was subjected to live cell imaging with MCF-7 breast cancer cells. Living cells treated with the tetracationic cyclophane at 50 and 20 μM (FIG. 7) and as low as 1 μM (FIG. 10) concentrations, were imaged by laser scanning confocal microscopy.
MCF-7 Breast cancer cells were grown in standard Dulbecco's modified eagle medium (DMEM), which was supplemented with 10% Fetal Bovine Serum (FBS) and 1% Penicillin-Streptomycin (Corning). Cells were seeded into an 8-well imaging coverglass chamber (manufacturer-CellVis) or multiwell plate using phenol red free DMEM about 24 h prior to treatment. Dye 9·4Cl was resuspended in deionized H2O before being diluted to their final concentrations in the cell culture media. Cells were treated with the dye for 24 h prior to imaging. Uptake assays were carried out at concentrations from 1-50 μM, including a vehicle control (untreated). For the cell growth assays, cells were treated with the dye for 24 h at a range of concentrations from 0.1-50 μM.
Confocal imaging was performed on a Leica SP8 laser scanning confocal microscope on a DMi8 […] stand with LAS X software in the Biological Imaging Facility (BIF) at Northwestern University. Uptake images were taken with a 63×/1.4 NA objective, scanning at a zoom of two with a pinhole of one Airy unit (AU) at 600 Hz with a galvo scanner and line averaging of two. Images were 92.35×92.35 μm (1024×1024) with 10 slices in the z direction with a step size of 0.3 μm (total stack volume 3.0 μm). A single excitation wavelength (405 nm) was used at a power of approximately 14 μW. For the emission collection, a Leica spectral Hybrid (HyD) detector set to collect a wavelength range of 500-650 nm (with a gain of 24%) was used. A transmitted light image was also collected simultaneously using the timeline photomultiplier (TL-PMT). Images were processed with FIJI/ImageJ (NIH) and settings were kept consistent throughout the series of images. Images presented are maximum intensity projections.

Data set [3] is described as follows: Transient absorption (fsTA/nsTA) and time-resolved fluorescence spectroscopy. The format is physicochemical. The settings on record: in H2O.
Data set [4] in a line: Steady-state UV/Vis absorption and fluorescence emission spectra. In kind it is physicochemical. The following applies: micromolar concentrations. The protocol: Fluorescent dyes 1-6, 7·2PF6, 8·2PF6, 9·4PF6 and 9·4Cl were dissolved in THF (1-5), MeCN (6, 7·2PF6, 8·2PF6 and 9.4PF6) and H2O (9.4Cl), respectively, to afford 10 μM solutions prior to spectroscopic analysis. For comparison, their normalized (i) UV/Vis absorption (FIG. 2) and (ii) the fluorescence emission (FIG. 3) spectra of quadrupolar dyes are overlayed, displaying a large range of S1 absorbance and emission maxima, which rely highly on their quadrupolarity that is correlated to the electron-deficiency of the ARs.
as §1

Data set [5] is described as follows: Solubility (qualitative). The format is physicochemical. The following applies: Cl− salt.

Molecules are shown by their SMILES. “Also recorded” adds a separate entry of the source.

For `COc1cc2c(OC)cc1-c1cc[n+](cc1)Cc1ccc(cc1)C[n+]1ccc(cc1)-c1cc(OC)c(cc1OC)-c1cc[n+](cc1)Cc1ccc(cc1)C[n+]1ccc-2cc1` [9·4Cl], in data set [1], the “Quantum Yield (ΦF)” value is 0.15. For the same compound, in data set [2] (50 μM and 10 μM, emission 500-650 nm), the “uptake and intracellular distribution (confocal images)” value was “taken up by living cells and concentrated in intracellular compartments”. The “uptake and intracellular distribution (confocal images)” value in data set [2] (MCF-7, 1 μM, emission 500-650 nm) was “taken up by living cells and concentrated in intracellular compartments”. Moreover, the fluorescence in cells entry in data set [2] (MCF-7, 405 nm laser excitation, emission 500-650 nm) is given as “fluoresces brightly in cells”. In addition, the cell uptake entry in data set [2] (MCF-7 cells, 1-50 μM) is “readily taken up by cells”. For the same compound, in data set [2] (as low as 1 μM), the “cell uptake at low treatment concentrations” value is given as “readily taken up by cells”. Further, in data set [3], the CT state lifetime is on record as 2.69±0.02 ns and the “rate constant k1 from TA data” value is “(1.4 ± 0.3 ps)^−1 (ps)^−1”. Further, in data set [3] (kNR = kobs(1 − ΦF)), the “non-radiative decay rate constant kNR” value was “(3.16 ± 0.02 ns)^−1 (ns)^−1”. In addition, the “emission in the green region” value in data set [4] was found to be 548 nm. Also, the “solubility in H2O” value in data set [5] is on record as “readily soluble; also recorded: Water soluble”.
